Measured values as given in patent US6620833B1, “Substituted benzimidazoles, production and use thereof as agents for combating parasitic protozoas” (Bayer Aktiengesellschaft, priority 1998, dated 2003).

Legend:
Format in all cases: in vivo
[1] = system: Eimeria acervulina, Eimeria maxima and Eimeria tenella; test: Cage experiment on coccidiosis/chicks, mixed experimental infection; settings: for dropping scores / lesion score: assessment 0 to 6; for mortality n: dead animals/animals employed
Description: 8 to 12 day-old male chicks (e.g. LSL Brinkschulte/Senden) which have been reared coccidia-free receive the compounds according to the invention (test substances) in the concentration indicated in ppm with the feed from 3 days before (day −3) infection (=a.i.) until 8 (9) days after infection (=p.i.). 3 animals are kept in each cage. One or more groups of this type are employed per dose. Infection is carried out by means of a stomach tube directly into the crop with approximately 100,000 sporulated oocysts of Eimeria acervulina and with approximately 30,000 oocysts each of E. maxima and 40,000 sporulated oocysts of E. tenella. These are highly virulent strains. The exact infection dose is adjusted so that, if possible, one of three experimentally infected untreated chicks dies due to the infection. For assessment of the efficacy, the following criteria are taken into account: weight increase from the start of the experiment to the end of the experiment, death rate due to infection, macroscopic assessment of the faeces with respect to diarrhoea and excretion of blood on days 5 and 7 p.i. (assessment 0 to 6), macroscopic assessment of the intestinal mucosa, in particular of the appendices (assessment 0 to 6) and the oocyst excretion as well as the proportion (in %) of the oocysts sporulating in the course of 24 hours. The number of oocysts in the faeces was determined with the aid of a McMaster counting chamber (see Engelbrecht and coworkers “Parasitologische Arbeitsmethoden in Medizin and Veterinärmedizin” [Parasitological Working Methods in Medicine and Veterinary Medicine], Akademie-Verlag, Berlin (1965)). The individual findings are related to the untreated non-infected control groups and a total score is calculated (cf. A. Haberkorn (1986), pp. 263 to 270 in Research in Avian Coccidiosis ed L. R. McDougald, L. P. Joyner, P. L. Long, Proceedings of the Georgia Coccidiosis Conference, Nov. 18-20, 1985. Athens/Georgia USA).
In the column “ppm”, the concentration of the active compound employed in the feed is indicated in ppm.
In the column “mortality” the percentage of the dead animals is indicated under % and the number of dead animals/animals employed in the experiment is indicated under n.
In the column “weight % of not inf. control” the ratio of the weight of the treated animals to the weight of the non-infected control group is indicated.
In the columns “dropping scores”, “lesion score” and “oocyst control”, individual details of the action are given.
In the column “% efficacy”, the total score is assessed; 0% means no action, 100% means full action.

[2] = system: Eimeria acervulina; test: Cage experiment on coccidiosis/chicks, E. acervulina readout; settings: for Efficacy against Eimeria acervulina: first symbol of cell; as to Efficacy against Eimeria acervulina: key: 2=full action; 1=slight action; 0=inactive; D=death
[3] = system: Eimeria tenella; test: Cage experiment on coccidiosis/chicks, E. tenella readout; settings: for Efficacy against Eimeria tenella: third symbol of cell; as to Efficacy against Eimeria tenella: key: 2=full action; 1=slight action; 0=inactive; D=death
[4] = system: Eimeria maxima; test: Cage experiment on coccidiosis/chicks, E. maxima readout; settings: for Efficacy against Eimeria maxima: second symbol of cell; as to Efficacy against Eimeria maxima: key: 2=full action; 1=slight action; 0=inactive; D=death

CCN(Cn1c(C(F)(F)F)nc2c(Br)cc3c(c21)OC(F)(F)C(F)(F)O3)C(=O)OC [Ex. 1]
% efficacy tot. ([1]; Table 1, 7.5 ppm in feed): 65%
mortality % ([1]; Table 1, 7.5 ppm in feed): 0%
oocyst in % of inf. control tot. ([1]; Table 1, 7.5 ppm in feed): 1.3%
weight % of not inf. control ([1]; Table 1, 7.5 ppm in feed): 76%
dropping scores ([1]; Table 1, 7.5 ppm in feed): 6
lesion score ([1]; Table 1, 7.5 ppm in feed): 5.3
mortality n ([1]; Table 1, 7.5 ppm in feed): 0/3
% efficacy tot. ([1]; Table 1, 10 ppm in feed): 75%
mortality % ([1]; Table 1, 10 ppm in feed): 0%
oocyst in % of inf. control tot. ([1]; Table 1, 10 ppm in feed): 0%
weight % of not inf. control ([1]; Table 1, 10 ppm in feed): 84%
dropping scores ([1]; Table 1, 10 ppm in feed): 6
lesion score ([1]; Table 1, 10 ppm in feed): 3.3
mortality n ([1]; Table 1, 10 ppm in feed): 0/3
% efficacy tot. ([1]; Table 2, 1 ppm in feed): 36%
mortality % ([1]; Table 2, 1 ppm in feed): 33%
oocyst in % of inf. control tot. ([1]; Table 2, 1 ppm in feed): 82%
weight % of not inf. control ([1]; Table 2, 1 ppm in feed): 31%
dropping scores ([1]; Table 2, 1 ppm in feed): 6
lesion score ([1]; Table 2, 1 ppm in feed): 6
mortality n ([1]; Table 2, 1 ppm in feed): 1/3
% efficacy tot. ([1]; Table 2, 2.5 ppm in feed): 36%
mortality % ([1]; Table 2, 2.5 ppm in feed): 33%
oocyst in % of inf. control tot. ([1]; Table 2, 2.5 ppm in feed): 58%
weight % of not inf. control ([1]; Table 2, 2.5 ppm in feed): 42%
dropping scores ([1]; Table 2, 2.5 ppm in feed): 4-6
lesion score ([1]; Table 2, 2.5 ppm in feed): 6
mortality n ([1]; Table 2, 2.5 ppm in feed): 1/3
% efficacy tot. ([1]; Table 2, 5 ppm in feed): 90%
mortality % ([1]; Table 2, 5 ppm in feed): 0%
oocyst in % of inf. control tot. ([1]; Table 2, 5 ppm in feed): 37%
weight % of not inf. control ([1]; Table 2, 5 ppm in feed): 110%
dropping scores ([1]; Table 2, 5 ppm in feed): 1
lesion score ([1]; Table 2, 5 ppm in feed): 0
mortality n ([1]; Table 2, 5 ppm in feed): 0/3
% efficacy tot. ([1]; Table 3, 5 ppm in feed): 45%
mortality % ([1]; Table 3, 5 ppm in feed): 0%
oocyst in % of inf. control tot. ([1]; Table 3, 5 ppm in feed): 12%
weight % of not inf. control ([1]; Table 3, 5 ppm in feed): 72%
dropping scores ([1]; Table 3, 5 ppm in feed): 6
lesion score ([1]; Table 3, 5 ppm in feed): 6
mortality n ([1]; Table 3, 5 ppm in feed): 0/3
% efficacy tot. ([1]; Table 3, 7.5 ppm in feed): 65%
mortality % ([1]; Table 3, 7.5 ppm in feed): 0%
oocyst in % of inf. control tot. ([1]; Table 3, 7.5 ppm in feed): 1.3%
weight % of not inf. control ([1]; Table 3, 7.5 ppm in feed): 76%
dropping scores ([1]; Table 3, 7.5 ppm in feed): 6
lesion score ([1]; Table 3, 7.5 ppm in feed): 5.3
mortality n ([1]; Table 3, 7.5 ppm in feed): 0/3
% efficacy tot. ([1]; Table 3, 10 ppm in feed): 75%
mortality % ([1]; Table 3, 10 ppm in feed): 0%
oocyst in % of inf. control tot. ([1]; Table 3, 10 ppm in feed): 0%
weight % of not inf. control ([1]; Table 3, 10 ppm in feed): 84%
dropping scores ([1]; Table 3, 10 ppm in feed): 6
lesion score ([1]; Table 3, 10 ppm in feed): 3.3
mortality n ([1]; Table 3, 10 ppm in feed): 0/3
oocyst in % of inf. control ac. ([2]; Table 1, 7.5 ppm in feed): 3%
oocyst in % of inf. control ac. ([2]; Table 1, 10 ppm in feed): 0%
oocyst in % of inf. control ac. ([2]; Table 2, 1 ppm in feed): 49%
oocyst in % of inf. control ac. ([2]; Table 2, 2.5 ppm in feed): 19%
oocyst in % of inf. control ac. ([2]; Table 2, 5 ppm in feed): 1%
oocyst in % of inf. control ac. ([2]; Table 3, 5 ppm in feed): 6%
oocyst in % of inf. control ac. ([2]; Table 3, 7.5 ppm in feed): 3%
oocyst in % of inf. control ac. ([2]; Table 3, 10 ppm in feed): 0%
Efficacy against Eimeria acervulina ([2]; Table 4, dose 2.5 ppm): 1
Efficacy against Eimeria acervulina ([2]; Table 4, dose 5 ppm): 2
Efficacy against Eimeria acervulina ([2]; Table 4, dose 10 ppm): 2
oocyst in % of inf. control ten. ([3]; Table 1, 7.5 ppm in feed): 1%
oocyst in % of inf. control ten. ([3]; Table 1, 10 ppm in feed): 1%
oocyst in % of inf. control ten. ([3]; Table 2, 1 ppm in feed): 97%
oocyst in % of inf. control ten. ([3]; Table 2, 2.5 ppm in feed): 55%
oocyst in % of inf. control ten. ([3]; Table 2, 5 ppm in feed): 11%
oocyst in % of inf. control ten. ([3]; Table 3, 5 ppm in feed): 30%
oocyst in % of inf. control ten. ([3]; Table 3, 7.5 ppm in feed): 1%
oocyst in % of inf. control ten. ([3]; Table 3, 10 ppm in feed): 1%
Efficacy against Eimeria tenella ([3]; Table 4, dose 2.5 ppm): 1
Efficacy against Eimeria tenella ([3]; Table 4, dose 5 ppm): 2
Efficacy against Eimeria tenella ([3]; Table 4, dose 10 ppm): 2
oocyst in % of inf. control max. ([4]; Table 1, 7.5 ppm in feed): 0%
oocyst in % of inf. control max. ([4]; Table 1, 10 ppm in feed): 0%
oocyst in % of inf. control max. ([4]; Table 2, 1 ppm in feed): 100%
oocyst in % of inf. control max. ([4]; Table 2, 2.5 ppm in feed): 100%
oocyst in % of inf. control max. ([4]; Table 2, 5 ppm in feed): 100%
oocyst in % of inf. control max. ([4]; Table 3, 5 ppm in feed): 0%
oocyst in % of inf. control max. ([4]; Table 3, 7.5 ppm in feed): 0%
oocyst in % of inf. control max. ([4]; Table 3, 10 ppm in feed): 0%
Efficacy against Eimeria maxima ([4]; Table 4, dose 2.5 ppm): 1
Efficacy against Eimeria maxima ([4]; Table 4, dose 5 ppm): 2
Efficacy against Eimeria maxima ([4]; Table 4, dose 10 ppm): 2

CC[C@@]1([C@@H]2O[C@@H]([C@H]3O[C@@](O)(CO)[C@H](C)C[C@@H]3C)C[C@@H]2C)CC[C@H]([C@]2(C)CC[C@]3(C[C@H](O)[C@@H](C)[C@@H]([C@@H](C)[C@@H](OC)[C@H](C)C(=O)O)O3)O2)O1 [Mon., Monensin, reference compound]
% efficacy tot. ([1]; Table 1, 25 ppm in feed): 45%
mortality % ([1]; Table 1, 25 ppm in feed): 33%
oocyst in % of inf. control tot. ([1]; Table 1, 25 ppm in feed): 66%
weight % of not inf. control ([1]; Table 1, 25 ppm in feed): 36%
dropping scores ([1]; Table 1, 25 ppm in feed): 6
lesion score ([1]; Table 1, 25 ppm in feed): 6
mortality n ([1]; Table 1, 25 ppm in feed): 1/3
% efficacy tot. ([1]; Table 1, 50 ppm in feed): 36%
mortality % ([1]; Table 1, 50 ppm in feed): 33%
oocyst in % of inf. control tot. ([1]; Table 1, 50 ppm in feed): 19%
weight % of not inf. control ([1]; Table 1, 50 ppm in feed): 81%
dropping scores ([1]; Table 1, 50 ppm in feed): 6
lesion score ([1]; Table 1, 50 ppm in feed): 6
mortality n ([1]; Table 1, 50 ppm in feed): 1/3
% efficacy tot. ([1]; Table 1, 100 ppm in feed): 24%
mortality % ([1]; Table 1, 100 ppm in feed): 33%
oocyst in % of inf. control tot. ([1]; Table 1, 100 ppm in feed): 36%
weight % of not inf. control ([1]; Table 1, 100 ppm in feed): 30%
dropping scores ([1]; Table 1, 100 ppm in feed): 6
lesion score ([1]; Table 1, 100 ppm in feed): 6
mortality n ([1]; Table 1, 100 ppm in feed): 1/3
oocyst in % of inf. control ac. ([2]; Table 1, 25 ppm in feed): 98%
oocyst in % of inf. control ac. ([2]; Table 1, 50 ppm in feed): 44%
oocyst in % of inf. control ac. ([2]; Table 1, 100 ppm in feed): 8%
oocyst in % of inf. control ten. ([3]; Table 1, 25 ppm in feed): 100%
oocyst in % of inf. control ten. ([3]; Table 1, 50 ppm in feed): 13%
oocyst in % of inf. control ten. ([3]; Table 1, 100 ppm in feed): 100%
oocyst in % of inf. control max. ([4]; Table 1, 25 ppm in feed): 0%
oocyst in % of inf. control max. ([4]; Table 1, 50 ppm in feed): 0%
oocyst in % of inf. control max. ([4]; Table 1, 100 ppm in feed): 0%

CO[C@@H]1[C@@H](OC)[C@H](C)[C@@](O)(CC(=O)O)O[C@H]1[C@H](C)[C@H]1O[C@@]2(CC[C@@](C)([C@H]3CC[C@@](C)([C@@H]4O[C@@H]([C@H]5O[C@](C)(O)[C@H](C)C[C@@H]5C)C[C@@H]4O[C@@H]4C[C@H](OC)[C@@H](OC)[C@H](C)O4)O3)O2)C[C@H](O)[C@H]1C [MAD, Maduramicin, reference compound]
% efficacy tot. ([1]; Table 2, 1 ppm in feed): 73%
mortality % ([1]; Table 2, 1 ppm in feed): 0%
oocyst in % of inf. control tot. ([1]; Table 2, 1 ppm in feed): 46%
weight % of not inf. control ([1]; Table 2, 1 ppm in feed): 93%
dropping scores ([1]; Table 2, 1 ppm in feed): 1
lesion score ([1]; Table 2, 1 ppm in feed): 2
mortality n ([1]; Table 2, 1 ppm in feed): 0/3
% efficacy tot. ([1]; Table 2, 2 ppm in feed): 84%
mortality % ([1]; Table 2, 2 ppm in feed): 0%
oocyst in % of inf. control tot. ([1]; Table 2, 2 ppm in feed): 51%
weight % of not inf. control ([1]; Table 2, 2 ppm in feed): 114%
dropping scores ([1]; Table 2, 2 ppm in feed): 0
lesion score ([1]; Table 2, 2 ppm in feed): 2
mortality n ([1]; Table 2, 2 ppm in feed): 0/3
% efficacy tot. ([1]; Table 2, 3 ppm in feed): 100%
mortality % ([1]; Table 2, 3 ppm in feed): 0%
oocyst in % of inf. control tot. ([1]; Table 2, 3 ppm in feed): 1.3%
weight % of not inf. control ([1]; Table 2, 3 ppm in feed): 112%
dropping scores ([1]; Table 2, 3 ppm in feed): 0
lesion score ([1]; Table 2, 3 ppm in feed): 0
mortality n ([1]; Table 2, 3 ppm in feed): 0/3
oocyst in % of inf. control ac. ([2]; Table 2, 1 ppm in feed): 8%
oocyst in % of inf. control ac. ([2]; Table 2, 2 ppm in feed): 8%
oocyst in % of inf. control ac. ([2]; Table 2, 3 ppm in feed): 1%
oocyst in % of inf. control ten. ([3]; Table 2, 1 ppm in feed): 30%
oocyst in % of inf. control ten. ([3]; Table 2, 2 ppm in feed): 45%
oocyst in % of inf. control ten. ([3]; Table 2, 3 ppm in feed): 3%
oocyst in % of inf. control max. ([4]; Table 2, 1 ppm in feed): 100%
oocyst in % of inf. control max. ([4]; Table 2, 2 ppm in feed): 100%
oocyst in % of inf. control max. ([4]; Table 2, 3 ppm in feed): 0%
